Data from patent US5573926A, “Process for obtaining aroma components and aromas from their precursors of a glycosidic nature, and aroma components and aromas thereby obtained” (Gist-brocades, N.V., priority 1989, dated 1996).
Values belong to the compound of their own block, whether it stands above or below them.

Assays:
α-arabinosidase [1] = test: Enzymatic hydrolysis of the muscat glycosidic extract by α-arabinosidase (GC); format: biochemical; conditions: for Terpene monoglucosides liberated by α-arabinosidase from a glycosidic extract / GC peak of the glycosidic extract after incubation with α-arabinosidase: 0.15 nkat, 40° C., 16 h; for % of monoglucosides (liberated by the two enzymes together): sum of α-arabinosidase and α-rhamnosidase; for Compounds appearing after action of α-arabinosidase: HPLC-collected peak, appears together with arabinose
Method: (§1) 40 μl of glycosidic extract and 60 μl of a solution of Glc-pNP (internal standard) at a concentration of 50 mg/1 in ethyl acetate are introduced into a suitable flask. The mixture is taken to dryness at 40° C. with a stream of nitrogen. 40 μl of the silylating reagent (Tri-sil, Pierce, Rockford, Ill., U.S.A.) are then introduced; the flask is sealed and maintained at 40° C. for 20 minutes. After rapid cooling, the silylated sample is then ready for analysis by GC.
(§2) The apparatus used consists of a Series 30C gas chromatograph, an "on-column" injector (injected volume 0.5 μl) and a flame ionization detector (Girdel, France). A thin film (0.20 μm) of an OV-1 (Girdel) apolar silicone phase is grafted onto the inner wall of the capillary column ([…].). The oven temperature is programmed from 125 to 305° C. at the rate of 5° C./minute, then maintained at 305° C. for 15 minutes. Finally, the detector temperature is set at 300° C. and hydrogen is used as the carrier gas at a pressure of 120 kPa.
(§3) The experimental protocols for the enzymatic hydrolysis on the glycosidic extract are collated in Table 3. […]

[2] = molecular target: T1, β-glucosidase (originating from the yeast Candida wickerhamii CBS 2928) (Nakazawaea wickerhamii, UniProt Q12601); test: Hydrolysis of monoglucosides in naturally sweet wines by Candida wickerhamii β-glucosidase; format: biochemical
T1 sequence (Q12601 20-609): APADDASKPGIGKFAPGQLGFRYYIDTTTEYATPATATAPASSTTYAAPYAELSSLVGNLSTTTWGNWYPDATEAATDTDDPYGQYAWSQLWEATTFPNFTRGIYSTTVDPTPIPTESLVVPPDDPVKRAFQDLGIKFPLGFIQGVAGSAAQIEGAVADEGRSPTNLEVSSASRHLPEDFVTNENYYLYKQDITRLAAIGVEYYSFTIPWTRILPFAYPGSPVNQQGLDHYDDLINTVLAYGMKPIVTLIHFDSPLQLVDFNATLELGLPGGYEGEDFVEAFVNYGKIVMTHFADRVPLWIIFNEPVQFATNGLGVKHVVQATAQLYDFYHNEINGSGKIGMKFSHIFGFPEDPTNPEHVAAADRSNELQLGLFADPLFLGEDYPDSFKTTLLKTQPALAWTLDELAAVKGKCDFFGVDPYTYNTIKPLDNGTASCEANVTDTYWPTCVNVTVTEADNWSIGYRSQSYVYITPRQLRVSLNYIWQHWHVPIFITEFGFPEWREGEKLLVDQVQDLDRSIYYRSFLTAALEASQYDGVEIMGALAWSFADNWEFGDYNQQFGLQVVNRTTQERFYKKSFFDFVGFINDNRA

α-rhamnosidase [3] = test: Enzymatic hydrolysis of the muscat glycosidic extract by α-rhamnosidase (GC); format: biochemical; conditions: 0.15 nkat, 40° C., 16 h
Method: as §1, §2, §3

β-glucosidase [4] = test: Second stage: consecutive action of β-glucosidase on the pre-incubated glycosidic extract (GC); format: biochemical, sweet almond; conditions: 0.15 nkat, 40°, 16 h
Method: as §1, §2, §3

α-arabinosidase [5] = test: Enzymatic hydrolysis of synthetic substrates by α-arabinosidase (TLC); format: biochemical; conditions: 0.15 nkat, 40° C., 90 min, pH 4.2
Method: (§4) Thin-layer adsorption chromatography was carried out on pieces of aluminium foil covered with a thin layer (0.2 mm) of silica gel (5553 Silica gel 60 without a fluorescence indicator, Merck). An ethyl acetate/isopropanol/water (65:30:10 v/v/v) mixture was used as a migration solvent.
(§5) The sugars and the glycosides are visualized by means of the following mixture, prepared immediately before use: 0.2% naphthoresorcinol in ethanol/concentrated sulphuric acid (19:1 v/v). The application of this visualizing agent is followed by drying the plates in the oven (105° C.) for 15 minutes. Apart from their migration distance, the various compounds are also distinguished by their colour. The glycosides are purple-red, the arabinosides are bluish, the apiosides are green, rhamnose greenish pink, arabinose blue, apiose green and glucose pink.
(§6) In all the tests relating to the enzymatic hydrolysis of the synthetic substrates, the same glycosidase activity (0.15 nkat) is used for each of the enzymes (α-arabinosidase, apiosidase, α-rhamnosidase, β-glucosidase).
(§7) The hydrolysis and analysis protocols are given in plan form (Table 2). […]

β-glucosidase [6] = test: Enzymatic hydrolysis of synthetic substrates by β-glucosidase (TLC, pNP liberated, GC); format: biochemical, sweet almond; conditions: media previously incubated with α-arabinosidase or α-rhamnosidase; 0.15 nkat, 40° C., 90 min
Method: as §5, with “An ethyl acetate/isopropanol/water (65:30:10 v/v/v) mixture was used as a migration solvent. The sugars” for “The sugars”, “glucose pink. […] The hydrolysis and analysis protocols are given in plan form (Table 2). […]” for “glucose pink.”

[7] = Enzymatic hydrolysis of a glycosidic extract in natural media (must, dry wine) by Hemicellulase REG2 + Naringinase; format: biochemical; conditions: 25° C., 86 hours
Method: The enzymatic hydrolysis of a glycosidic extract incorporated, on the one hand into a natural medium (must or dry wine), and on the other hand into a reference medium (buffer), by the action of commercial preparations containing the requisite three glycosidases, was studied.
A juice and a wine of a vine variety not containing terpenols and terpene glycosides, but enriched beforehand with a known amount of glycosidic extract of muscat, are treated with commercial enzyme preparations. The media, as well as controls, are incubated at 25° C. for 86 hours (see the experimental protocol plan below). They are then passed through a column of Amberlite XAD-2 according to the protocol applied for the production of the glycosidic extract, and the terpenols are assayed by GC.

[8] = test system: β-glucosidase (originating from Aspergillus niger); test: Inhibition of β-glucosidase activity by glucose in must and sweet wine; format: biochemical
[9] = test system: α-arabinosidase and then β-glucosidase; test: Sequential hydrolysis by α-arabinosidase and then β-glucosidase (GC of sugars, glucosides, terpenols); format: biochemical; conditions: HPLC-collected peak; appears together with glucose
Method: The monoterpene alcohols studied here are sufficiently volatile to be chromatographed as they are. To the pentane extract containing them, the internal standard, 4-nonanol (for synthesis, Merck, Darmstadt, FRG) is added in the proportion of 1 μl of a solution at a concentration of 2.89 mg/ml in pentane per 50 μl of medium. The mixture is then dried over sodium sulphate, filtered through glass wool and then concentrated to a volume in the region of 100 μl For this purpose, the pentane is first removed using a conventional still, and then a Dufton type column of a size suited to the volume remaining to be concentrated.
The constituents of the concentrated extract are separated using a capillary column (25 m×0.32 mm I.D.) containing a CP wax 52 CB (Chrompack, Middelburg, Netherlands) polar phase. The grafted polyethylene glycol film was selected thick (1.28 μm) in order to permit the injection of large sample volumes, up to 4 μl. […]
Furthermore, each fraction was subjected to the sequential action of α-arabinosidase and then β-glucosidase. At the end of each stage and according to the procedures described, the incubated medium was analysed by GC in order to test for sugars and glucosides on the one hand, and for terpenols on the other hand. […]

α-rhamnosidase [10] = test: Enzymatic hydrolysis of synthetic substrates by α-rhamnosidase (TLC); format: biochemical; conditions: 0.15 nkat, 40° C., 90 min, pH 4.2
Method: as §4, §5, §6, §7

SMILES: O=[N+]([O-])c1ccc(O[C@@H]2O[C@H](CO[C@@H]3O[C@@H](CO)[C@H](O)[C@H]3O)[C@@H](O)[C@H](O)[C@H]2O)cc1 [Ara-Glc-pNP, p-Nitrophenyl 6-O-(α-L-arabinofuranosyl)-β-D-glucopyranoside]
hydrolysis by α-arabinosidase (TLC) (α-arabinosidase [5]): disappearance of this substrate and the appearance of arabinose and Glc-pNP

SMILES: O=[N+]([O-])c1ccc(O[C@@H]2O[C@H](CO)[C@@H](O)[C@H](O)[C@H]2O)cc1 [Glc-pNP, p-nitrophenyl β-D-glucopyranoside, reference compound]
consecutive action of β-glucosidase (second stage, TLC) (β-glucosidase [6]): disappearance of Glc-Ger and Glc-pNP and the appearance of glucose

SMILES: OCc1ccccc1 [Benzyl alcohol]
Compounds liberated relative to the reference medium ([7]; MUST (pH 3.4, sugars 180 g/l)): 46% | Compounds liberated relative to the reference medium ([7]; WINE (dry white, pH 3.1)): 50%

SMILES: OC[C@H]1OC(O)[C@H](O)[C@@H](O)[C@@H]1O (stereo partly drawn) [glucose]
effect on β-glucosidase activity ([8]; glucose 30 g/l in naturally sweet wines): inhibiting β-glucosidase | effect on β-glucosidase activity ([8]; glucose present in large amounts in the must): inhibition of the β-glucosidase activity

SMILES: C[C@@H]1O[C@@H](OC[C@H]2O[C@@H](Oc3ccc([N+](=O)[O-])cc3)[C@H](O)[C@@H](O)[C@@H]2O)[C@H](O)[C@H](O)[C@H]1O [Rha-Glc-pNP]
hydrolysis by α-rhamnosidase (TLC) (α-rhamnosidase [10]): disappearance of these substrates

Now from value to compound, other results behind:

Terpene monoglucosides liberated by α-arabinosidase from a glycosidic extract (α-arabinosidase [1]): 28% | % of monoglucosides (liberated by the two enzymes together) (α-arabinosidase [1]): 33% | hydrolyzed by Candida wickerhamii β-glucosidase ([2]; pH 3.6): 19% | hydrolyzed by Candida wickerhamii β-glucosidase ([2]; pH 4.0): two thirds | Terpene monoglucosides liberated by α-rhamnosidase from a glycosidic extract (α-rhamnosidase [3]): 5% | hydrolysis by consecutive action of β-glucosidase (second stage, GC) (β-glucosidase [4]): disappearance
SMILES: CC(C)=CCC/C(C)=C\CO[C@@H]1O[C@H](CO)[C@@H](O)[C@H](O)[C@H]1O [Glc-Ner, neryl β-D-glucopyranoside]

GC peak of the glycosidic extract after incubation with α-arabinosidase (α-arabinosidase [1]): disappear completely | Compounds appearing after action of α-arabinosidase (α-arabinosidase [1]): Glc--Ner | Compounds appearing after action of α-arabinosidase and then β-glucosidase [9]: nerol
SMILES: CC(C)=CCC/C(C)=C\CO[C@@H]1O[C@H](CO[C@@H]2O[C@@H](CO)[C@H](O)[C@H]2O)[C@@H](O)[C@H](O)[C@H]1O [Ara-Glc-Ner, neryl a-L-arabinofuranosyl-(1→6)-β-D-glucopyranoside]

Terpene monoglucosides liberated by α-arabinosidase from a glycosidic extract (α-arabinosidase [1]): 39% | % of monoglucosides (liberated by the two enzymes together) (α-arabinosidase [1]): 48% | hydrolyzed by Candida wickerhamii β-glucosidase ([2]; pH 3.6): 45% | hydrolyzed by Candida wickerhamii β-glucosidase ([2]; pH 4.0): two thirds | Terpene monoglucosides liberated by α-rhamnosidase from a glycosidic extract (α-rhamnosidase [3]): 9% | hydrolysis by consecutive action of β-glucosidase (second stage, GC) (β-glucosidase [4]): disappearance
SMILES: CC(C)=CCC/C(C)=C/CO[C@@H]1O[C@H](CO)[C@@H](O)[C@H](O)[C@H]1O [Glc-Ger, geranyl β-D-glucopyranoside]
consecutive action of β-glucosidase (second stage, TLC) (β-glucosidase [6]): disappearance of Glc-Ger and Glc-pNP and the appearance of glucose

GC peak of the glycosidic extract after the action of α-rhamnosidase (α-rhamnosidase [3]): decreases | hydrolysis by α-rhamnosidase (TLC) (α-rhamnosidase [10]): disappearance of these substrates
SMILES: CC(C)=CCC/C(C)=C/CO[C@@H]1O[C@H](CO[C@@H]2O[C@@H](C)[C@H](O)[C@@H](O)[C@H]2O)[C@@H](O)[C@H](O)[C@H]1O [Rha-Glc-Ger, Geranyl 6-O-(α-L-rhamnopyranosyl)-β-D-glucopyranoside]

Compounds liberated relative to the reference medium ([7]; MUST (pH 3.4, sugars 180 g/l)): 9% | Compounds liberated relative to the reference medium ([7]; WINE (dry white, pH 3.1)): 14%
SMILES: C=CC(C)(O)CCC=C(C)C (stereo not drawn) [Linalol]

GC peak of the glycosidic extract after incubation with α-arabinosidase (α-arabinosidase [1]): disappear completely | Compounds appearing after action of α-arabinosidase (α-arabinosidase [1]): Glc--Ger | Compounds appearing after action of α-arabinosidase and then β-glucosidase [9]: geraniol
SMILES: CC(C)=CCC/C(C)=C/CO[C@@H]1O[C@H](CO[C@@H]2O[C@@H](CO)[C@H](O)[C@H]2O)[C@@H](O)[C@H](O)[C@H]1O (single isomer, unassigned) [Ara-Glc-Ger, Geranyl 6-O-(α-L-arabinofuranosyl)-β-D-glucopyranoside]
